Measurements: patent publication US11492361B2, “Compounds useful in HIV therapy” (GlaxoSmithKline Intellectual Property Development Limited, priority 2018, dated 2022)
Read-outs that look alike come from different tables or passages of the source.

How the values were obtained:
[1] = system: cell-associated HIV RNA (HIV gag RNA) in CD4+ T cells; assay: Cell associated HIV RNA (caRNA) assay; assay type: cell-based, human; conditions: CD4+ T cells treated for 48 hours
Excerpt: During the productive phase of the viral life cycle, HIV produces a large number of differentially spliced transcripts collectively termed cell-associated HIV RNA (ca-HIV RNA) within some cells that are infected. In HIV-infected individuals on suppressive antiretroviral therapy (ART), changes in the levels of caHIV RNA is an accepted surrogate measure of the efficacy of HIV latency reversal.
To measure ca-HIVRNA, peripheral blood mononuclear cells (PBMCs) are isolated from leukocytes obtained by continuous-flow leukapheresis. Total CD4^+ T cells were isolated from PBMCs by negative selection using the EasySep Human CD4^+ T cell Enrichment kit (StemCell, Vancouver, Canada) per the manufacturer's recommendations. Resting CD4^+ T cells are isolated by negative selection with an immunomagnetic column as described previously (25) and either cryopreserved immediately or maintained for two days in IMDM medium (Gibco), 10% FBS, 2 μg/mL IL-2 (Peprotech), and antiretrovirals to prevent viral expansion.
For SMACm treatment, three to five replicates of 2-5×10^6 CD4^+ T cells were treated for 48 hours at 37° C. in 1 mL of RPMI medium 1640, 10% FBS, 10 μg/mL of enfuvirtide (Sigma), and 200 nM rilpivirine. 10 nM phorbol 12-myristate 13-acetate (PMA; Sigma) with 1 μM ionomycin (Sigma) was used as a positive control for LRA activation and 0.2% DMSO vehicle was used as a negative control. Following treatment, cells were lysed and RNA and DNA were co-extracted using an AIIPrep 96 RNA/DNA kit (Qiagen, Valencia, Calif.) per the manufacturer's instructions, adjusting the volume of lysis buffer to 0.6 mL, adding an on-column DNase I treatment (Qiagen) and eluting RNA in 50 μL of water. […]
HIV absolute HIV gag RNA copies per reaction were determined using an HIV gag gBlock qPCR standard corresponding to the DNA sequence of the qPCR product (5′-[…]-3′ (SEQ ID NO: 4); Integrated DNA Technologies), and copies were normalized to cell counts as determined by bright field microscopy. […]

[2] = system: Jurkat HIV-luciferase clones; assay: Jurkat latency reversal assay; assay type: cell-based; conditions: Table 4 summary, read-out: Jurkat EC50
Procedure, shortened: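 Three pooled Jurkat HIV-luciferase clones (C16, I15, N6; 5,000 cells/well, maintained with 500 nM EFV) exposed to 3-fold, 14-point titrations (10 μM to 2.1 pM, 0.5% DMSO) in duplicate for 48 h at 37 °C. Luciferase luminescence read; EC50 and maximal % activation versus vehicle from four-parameter logistic fit.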

NFKB2 = assay: NFkB2 gene induction; assay type: cell-based, human; conditions: normal donor CD4 T cells, 24h, read-out: NFkB2 gene induction EC50
Method: 5×10^5 normal donor CD4 T cells were treated for 24h with serial dilutions of compounds starting at 1.0 μM at 6 fold, 7 places. Total RNA was isolated using the RNEasy Mini kit (Qiagen) per the manufacturer's instructions. The following TaqMan primer probe sets were sourced from Applied Biosystems: Hs00174517_m1 (NFKB2) and Hs02800695 (HPRT1). TaqMan-based real-time PCR (Fast Virus 1-Step Master Mix, Applied Biosystems) was used to amplify host genes of interest. Gene expression was normalized to HPRT1 and comparative threshold cycle (CT) method (ΔΔCT) was used for relative fold change of gene expression as compared to untreated cells. The data was analyzed by QuantStudio3 Real-Time PCR System.

SMILES	caRNA Lowest efficacious concentration observed [1]	EC50 ([2]; Homo sapiens, Jurkat, 48 h) [nM]	EC50 (NFKB2; Homo sapiens) [nM]	EC50 [2] [nM]	EC50 (NFKB2) [nM]
CC[C@H](NC(=O)[C@H](C)NC)C(=O)N1C[C@@H](O)C[C@H]1Cc1c(-c2[nH]c3cc(F)ccc3c2C[C@@H]2C[C@H](O)CN2C(=O)[C@H](CC)NC(=O)[C@H](C)NC)[nH]c2cc(F)ccc12 [Birinapant, reference compound]	>1000	200	> 1000		
CN[C@H](C)C(=O)N[C@@H]1CCS[C@@H]2CC(C)(C)C(C(=O)N[C@@H]3CCCc4ccccc43)N2C1=O (stereo partly drawn) [SBI-0637142]	>1000			1	18000
CN[C@H](C)C(=O)N[C@@H](C(=O)N1CCC[C@@H]1C(=O)N[C@@H]1c2ccccc2C[C@@H]1OCC#CC#CCO[C@@H]1Cc2ccccc2[C@H]1NC(=O)[C@H]1CCCN1C(=O)[C@H](NC(=O)[C@@H](C)NC)C1CCCCC1)C1CCCCC1 [AZD5582, reference compound]	10			8	28
